Test results taken from patent US8324427B2, “Substances analogous to MK8383 and agricultural and horticultural disease control agents” (Meiji Seika Kaisha, Ltd., priority 2008, dated 2012).

Tests used:
[1] = system: Botrytis cinerea; assay: Evaluation of control effect (preventive value) on cabbage leaf discs; format: in vivo; details: 100 ppm test solution sprayed on cabbage leaf discs; Botrytis cinerea spore inoculation; three days after the infection
Experimental: The compounds obtained in Examples 1 to 3 were dissolved in acetone to bring the concentration of the compounds to 1 mg/mL. Ten-fold diluted Neoesterin (manufactured by KUMIAI CHEMICAL INDUSTRY CO., LTD.) (1 μL) was added to 20 μL of the solutions. Further, 180 μL of deionized water was added thereto to regulate the concentration to 100 ppm to prepare test solutions. The control effect was measured by measuring the preventive value of each of the test solutions. The preventive value was calculated by the following method. At the outset, leaves cut by a leaf punch off from the leaves at the third and fourth stages of cabbage were allowed to stand still on a multi-well plate. An appropriate amount of the test solution was sprayed followed by air drying. Next, a spore suspension (2.0×10^5 cells/mL) of Botrytis cinerea was prepared as an inoculating microorganism liquor and was inoculated by spraying in an amount of 20 mL per 7 to 10 multi-well plate. Infection with Botrytis cinerea was carried out in a light shielding chamber (temperature 21° C., humidity about 100%), and the preventive value was calculated three days after the infection. […] 0; No pathogenesis was found. 1; Slight pathogenesis was found. 2; Control effect was found as compared with untreated plot, although diseases were developed. 3; Phathogenesis equivalent to that in untreated plot was found. [formula]

[2] = Evaluation of photostability (residual ratio after exposure to light); format: physicochemical; details: dry film exposed to sunlight lamp 24 hr, 25° C., humidity 60%, 30,000 lux, UV 300 to 400 μW/cm^2; HPLC; 0 hr = 100%
Experimental: The compounds obtained in Examples 1 to 3 were dissolved in acetone, and the concentration of the compounds was adjusted to 200 μg/mL (100 μg/mL for the compound of Example 3) to give test solutions. The photostability was determined by measuring the residual ratio of compound after exposure to light. The residual ratio was calculated by the following method. The test solution (500 μL) was dispensed in a glass Petri dish having a diameter of 5 cm, and the solvent was removed by evaporation under light shielding conditions to form a dry film. The dry film was exposed to a sunlight lamp within a chamber (temperature 25° C., humidity 60%) and was recovered 24 hr after the start of the exposure. The exposed film was washed with 500 μL of methanol and was analyzed by HPLC (manufactured by Nihon Waters K.K.). The residual ratio (concentration ratio after the elapse of each hour when the residual ratio at 0 hr was presumed to be 100%) was calculated by regarding the peak area as the concentration of the compound.

[3] = system: Botrytis cinerea; assay: Antimicrobial activity test (extension of hypha); format: cell-based; design: key to the marks not given beside the values; details: final concentration 12.5 ppm, 3 days
[4] = system: Colletotrichum lagenarium; assay: Antimicrobial activity test (extension of hypha); format: cell-based; design: key to the marks not given beside the values; details: final concentration 12.5 ppm, 3 days
[5] = system: Leptosphaeria nodorum; assay: Antimicrobial activity test (extension of hypha); format: cell-based; design: key to the marks not given beside the values; details: final concentration 12.5 ppm, 3 days
[6] = system: Alternaria kikutiana; assay: Antimicrobial activity test (extension of hypha); format: cell-based; design: key to the marks not given beside the values; details: final concentration 12.5 ppm, 3 days
[7] = system: Rhizoctonia solani; assay: Antimicrobial activity test (extension of hypha); format: cell-based; design: key to the marks not given beside the values; details: final concentration 12.5 ppm, 3 days
[8] = system: Pyricularia oryzae; format: cell-based; design: key to the marks not given beside the values; details: final concentration 12.5 ppm, 3 days
[9] = system: Cercospora beticola; assay: Antimicrobial activity test (extension of hypha); format: cell-based; design: key to the marks not given beside the values; details: final concentration 12.5 ppm, 3 days

SMILES	Preventive value [1]	Residual ratio after 24 hr [2] [%]	Inhibition of extension [3]	Inhibition of extension [4]	Inhibition of extension [5]	Inhibition of extension [6]	Inhibition of extension [7]	Inhibition of extension [8]	Inhibition of extension [9]
C/C=C(\C)[C@H]1[C@@H](/C=C/C=C/C(=O)O)[C@H]2[C@@H](C[C@@H]1C)[C@@H](O)CC[C@@H]2C [Compound of Example 2, (2E,4E)-5-{(1S,4S,4aS,5S,6R,7S,8aR)-6-[(E)-but-2-en-2-yl]-decahydro-1-hydroxy-4,7-dimethylnaphthalen-5-yl}penta-2,4-dienoic acid]	100	108							
C/C=C(/C)[C@H]1[C@@H](/C=C/C=C/C(=O)O)[C@H]2[C@@H](C[C@@H]1C)[C@@H](O)CC[C@@H]2C [Compound of Example 3, (2E,4E)-5-{(1S,4S,4aS,5S,6R,7S,8aR)-6-[(Z)-but-2-en-2-yl]-decahydro-1-hydroxy-4,7-dimethylnaphthalen-5-yl}penta-2,4-dienoic acid]	100	95	+++	++	++	++	+++	++	+++
C/C=C(\C)[C@H]1[C@@H](/C=C/C=C/C(=O)O)[C@H]2[C@@H]([C@H]3C[C@]31C)[C@@H](O)CC[C@@H]2C [Compound of Example 1, (2E,4E)-5-{(1aR,2R,3S,3aS,4S,7S,7aS,7bR)-2-[(E)-but-2-en-2-yl]-decahydro-7-hydroxy-1a,4-dimethyl-1H-cyclopropa[a]naphthalen-3-yl}penta-2,4-dienoic acid]	92	100							
